Source: patent US5407918A, “16-membered macrolide derivatives and process for producing the same” (Meiji Seika Kaisha, Ltd., priority 1992, dated 1995)
≈ marks a conversion by molar mass, not a printed value. Like-named read-outs stand apart in the source and are kept apart here.

How the values were obtained:
Type in all cases: cell-based
[1] = system: B. catarrhalis W-0500; assay: MIC, agar plate dilution method; conditions: Moraxella catarrhalis, W0500, 37° C., 20 hours, read-out: Antimicrobial activity (MIC)
Protocol: (§1) Antimicrobial activities of the compounds of the present invention were determined by measuring minimum inhibitory concentration (MIC). Minimum inhibitory concentration was determined by the agar plate dilution method in the following manner.
(§2) Test strains were subjected to seed culture using Sensitivity test broth (STB, Nissui Pharmaceutical) except that the strains belonging to the genus Streptococcus, Branhamella and Haemophilus were cultured on blood agar plate. A 5 μl portion of cell suspension of the test strains having about 10^6 CFU/ml was inoculated into Sensitivity disk agar (SDA, Nissui Pharmaceutical) supplemented with 5% horse blood and incubated at 37° C. for 20 hours. Then, MIC was measured. For comparison, MDM and leucomycin A7 (LM-A7) was also tested.

[2] = system: B. catarrhalis W-0506; assay: MIC, agar plate dilution method; conditions: Moraxella catarrhalis, W0506, 37° C., 20 hours, read-out: Antimicrobial activity (MIC)
Protocol: as §1, §2

[3] = system: E. coli NIHJ JC-2; assay: MIC, agar plate dilution method; conditions: Escherichia coli, NIHJJC2; E. coli NIHJ JC-2; 37° C., 20 hours; read-out: Antimicrobial activity (MIC)
Protocol: as §1, §2

[4] = system: E. faecalis W-73; assay: MIC, agar plate dilution method; conditions: Enterococcus faecalis, W73; E. faecalis W-73; 37° C., 20 hours; read-out: Antimicrobial activity (MIC)
Protocol: as §1, §2

[5] = system: H. influenzae 9334; assay: MIC, agar plate dilution method; conditions: Haemophilus influenzae; H. influenzae 9334; 37° C., 20 hours; read-out: Antimicrobial activity (MIC)
Protocol: as §1, §2

[6] = system: H. influenzae Type b; assay: MIC, agar plate dilution method; conditions: Haemophilus influenzae; H. influenzae Type b; 37° C., 20 hours; read-out: Antimicrobial activity (MIC)
Protocol: as §1, §2

[7] = system: K. pneumoniae PC1602; assay: MIC, agar plate dilution method; conditions: Klebsiella pneumoniae, 37° C., 20 hours, read-out: Antimicrobial activity (MIC)
Protocol: as §1, §2

[8] = system: M. luteus ATCC9341; assay: MIC, agar plate dilution method; conditions: Micrococcus luteus; M. luteus ATCC9341; 37° C., 20 hours; read-out: Antimicrobial activity (MIC)
Protocol: as §1, §2

[9] = system: S. Pneumoniae Type 1; assay: MIC, agar plate dilution method; conditions: Streptococcus pneumoniae; S. Pneumoniae Type 1; 37° C., 20 hours; read-out: Antimicrobial activity (MIC)
Protocol: as §1, §2

[10] = system: S. Pyogenes Cook; assay: MIC, agar plate dilution method; conditions: Streptococcus pyogenes, 37° C., 20 hours, read-out: Antimicrobial activity (MIC)
Protocol: as §1, §2

[11] = system: S. aureus 209P JC-1; assay: MIC, agar plate dilution method; conditions: Staphylococcus aureus, read-out: Antimicrobial activity (MIC)
Protocol: as §1, §2

[12] = system: S. aureus M126; assay: MIC, agar plate dilution method; conditions: Staphylococcus aureus, read-out: Antimicrobial activity (MIC)
Protocol: as §1, §2

[13] = system: S. aureus M133; assay: MIC, agar plate dilution method; conditions: Staphylococcus aureus, 37° C., 20 hours, read-out: Antimicrobial activity (MIC)
Protocol: as §1, §2

[14] = system: S. aureus MS15009/pMS98; assay: MIC, agar plate dilution method; conditions: Staphylococcus aureus, MS15009/PMS98, 20 h, read-out: Antimicrobial activity (MIC)
Protocol: as §1, §2

[15] = system: S. aureus MS15009/pMS99; assay: MIC, agar plate dilution method; conditions: Staphylococcus aureus, MS15009/PMS99, 20 h, read-out: Antimicrobial activity (MIC)
Protocol: as §1, §2

[16] = system: S. aureus MS15026; assay: MIC, agar plate dilution method; conditions: Staphylococcus aureus, 37° C., 20 hours, read-out: Antimicrobial activity (MIC)
Protocol: as §1, §2

[17] = system: S. aureus MS15027; assay: MIC, agar plate dilution method; conditions: Staphylococcus aureus, 37° C., 20 hours, read-out: Antimicrobial activity (MIC)
Protocol: as §1, §2

[18] = system: S. epidermidis ATCC14990; assay: MIC, agar plate dilution method; conditions: Staphylococcus epidermidis, 37° C., 20 hours, read-out: Antimicrobial activity (MIC)
Protocol: as §1, §2

[19] = system: S. pneumoniae IP692; assay: MIC, agar plate dilution method; conditions: Streptococcus pneumoniae; S. pneumoniae IP692; 37° C., 20 hours; read-out: Antimicrobial activity (MIC)
Protocol: as §1, §2

[20] = system: Gram-positive bacteria; assay: antimicrobial activity in vitro (summary in words); conditions: from Tables 2 and 3
Protocol: as §1, §2

[21] = system: test strains; assay: antimicrobial activity in vitro, comparison in words
Protocol: as §1, §2

| SMILES | MIC [1] | MIC [2] | MIC [3] | MIC [4] | MIC [5] | MIC [6] | MIC [7] | MIC [8] | MIC [9] | MIC [10] | MIC [13] | MIC [14] | MIC [15] | MIC [16] | MIC [17] | MIC [18] | MIC [19] | other results |
| --- | --- | --- | --- | --- | --- | --- | --- | --- | --- | --- | --- | --- | --- | --- | --- | --- | --- | --- |
| CCCCO[C@H]1[C@H](C)O[C@@H](O[C@H]2[C@H](N(C)C)[C@@H](O)[C@H](O[C@H]3[C@@H](CC=O)C[C@@H](C)[C@@H](O)/C=C/C=C/C[C@@H](C)OC(=O)C[C@@H](O)[C@@H]3OC)O[C@@H]2C)C[C@@]1(C)OC [(10)] | 0.78 µg/mL (≈ 1.01 µM) | 1.56 µg/mL (≈ 2.02 µM) | > 100 µg/mL | 0.78 µg/mL (≈ 1.01 µM) | 3.13 µg/mL (≈ 4.05 µM) | 12.5 µg/mL (≈ 16.2 µM) | > 100 µg/mL | 0.05 µg/mL (≈ 0.0648 µM) | 0.2 µg/mL (≈ 0.259 µM) | 0.1 µg/mL (≈ 0.13 µM) | 0.39 µg/mL (≈ 0.505 µM) | 0.39 µg/mL (≈ 0.505 µM) | > 100 µg/mL | > 100 µg/mL | 0.39 µg/mL (≈ 0.505 µM) | 0.39 µg/mL (≈ 0.505 µM) | 0.1 µg/mL (≈ 0.13 µM) | MIC ([11]; S. aureus 209P JC-1, 37° C., 20 hours): 0.1 µg/mL (≈ 0.13 µM); MIC ([12]; S. aureus M126, 37° C., 20 hours): > 100 µg/mL; antimicrobial activity on Gram-positive bacteria [20]: strong antimicrobial activity; antimicrobial activity in vitro compared with MOM ([21]; data are not shown): clearly much superior to MOM; antimicrobial activity compared with LM-A7 ([21]; except on Haemophilus influenzae, Tables 2 and 3): comparable or superior |
| CCC(=O)O[C@H]1[C@H](C)O[C@@H](O[C@H]2[C@H](N(C)C)[C@@H](O)[C@H](O[C@H]3[C@@H](CC=O)C[C@@H](C)[C@@H](O)/C=C/C=C/C[C@@H](C)OC(=O)C[C@@H](O)[C@@H]3OC)O[C@@H]2C)C[C@@]1(C)O [LM-A7, leucomycin A7, reference compound] | 0.78 µg/mL (≈ 1.03 µM) | 1.56 µg/mL (≈ 2.06 µM) | > 100 µg/mL | 0.78 µg/mL (≈ 1.03 µM) | 0.78 µg/mL (≈ 1.03 µM) | 6.25 µg/mL (≈ 8.25 µM) | > 100 µg/mL | 0.05 µg/mL (≈ 0.066 µM) | 0.2 µg/mL (≈ 0.264 µM) | 0.1 µg/mL (≈ 0.132 µM) | 0.39 µg/mL (≈ 0.515 µM) | 0.39 µg/mL (≈ 0.515 µM) | > 100 µg/mL | > 100 µg/mL | 0.39 µg/mL (≈ 0.515 µM) | 0.39 µg/mL (≈ 0.515 µM) | 0.2 µg/mL (≈ 0.264 µM) | MIC ([11]; 209P, 20 h): 0.2 µg/mL (≈ 0.264 µM); MIC ([12]; M126, 20 h): > 100 µg/mL |
| CO[C@@H]1[C@@H](O[C@@H]2O[C@H](C)[C@@H](O[C@H]3C[C@@](C)(OC)[C@@H](OCCC(C)C)[C@H](C)O3)[C@H](N(C)C)[C@H]2O)[C@@H](CC=O)C[C@@H](C)[C@@H](OC(C)=O)/C=C/C=C/C[C@@H](C)OC(=O)C[C@H]1O [(13)] | – | – | – | – | – | – | – | – | – | – | – | – | – | – | – | – | – | antimicrobial activity compared with compound (12) ([21]; data are not shown): comparable in the antimicrobial activity to the compound (12) |
